Test results published in patent EP0096569A2, “Triazole antifungal agents” (Pfizer Limited, priority 1982, dated 1983).

Each molecule was assayed on Candida albicans (assay: in vivo evaluation in mice inoculated with Candida albicans (protection against lethal infection, PD50)). Settings: oral, dose level giving 50% protection against the lethal effect of the infection.
Design: unit not given beside the values
Description: The in vivo evaluation of the compounds can be carried out at a series of dose levels by intraperitoneal or intravenous injection or by oral administration, to mice which are inoculated with a strain of Candida albicans. Untreated mice die within 48 hours and the dose level at which the compound provides 50% protection against the lethal effect of the infection (PDSO) is noted.
Activity Data in mice (oral PD50 values)
FC(Cn1cncn1)(Cn1cncn1)c1ccc(Cl)cc1Cl [Product of Example 4, 1,3-Bis(1H-1,2,4-triazol-1-yl)-2-(2,4-dichlorophenyl)-2-fluoro-propane] gave a PD50 of 1.8. Work on Fc1ccc(C(Cl)(Cn2cncn2)Cn2cncn2)c(F)c1 [Product of Example 6] yielded a PD50 of 0.9. For Fc1ccc(C(Br)(Cn2cncn2)Cn2cncn2)c(F)c1 [Product of Example 3, 1,3-Bis(1H-1,2,4-triazol-1-yl)-2-bromo-2-(2,4-difluorophenyl)propane], the PD50 was 0.3. Work on Clc1ccc(C(Br)(Cn2cncn2)Cn2cncn2)c(Cl)c1 [Product of Example 2, 1,3-Bis(lH-1,2,4-triazol-1-yl)-2-bromo-2-(2,4-dichlorophenyl) propane] yielded a PD50 of 0.03. Clc1ccc(C(Cl)(Cn2cncn2)Cn2cncn2)cc1 [Product of Example 8] gave a PD50 of 0.3. In the case of Clc1ccc(C(Cl)(Cn2cncn2)Cn2cncn2)c(Cl)c1 [Product of Example 1, 1,3-Bis-(1H-1,2,4-triazol-1-yl)-2-chloro-2-(2,4-dichlorophenyl) propane], the PD50 is reported as 0.1. ClC(Cn1cncn1)(Cn1cncn1)c1ccc(I)cc1 [Product of Example 7] showed a PD50 of 0.2. With Fc1cc(C(Cl)(Cn2cncn2)Cn2cncn2)c(F)cc1Br [Product of Example 5] the PD50 was 1.6. Clc1ccc(C(Cl)(Cn2cncn2)Cn2cncn2)nc1 [Product of Example 9, 1,3-Bis(1A-1,2,4-triazol-1-yl)-2-chloro-2-(5-chloropyrid-2-yl)propane] showed a PD50 of 0.2.
